Laboratory results: patent US7615523B2, “Lens care product containing dexpanthenol” (Novartis AG, priority 2006, dated 2009)

Legend:
[1] = stabilisation of the lachrymal film when inserting contact lenses; settings: when/after inserting the contact lenses
Description: Dexpanthenol, an alcohol of pantothenic acid, also called Provitamin B5, D-pantothenyl alcohol or D-panthenol, has been used for a long time for healing wounds or in the field of medicinal skin care. […] Vortex motion of the lachrymal liquid can occur through the insertion of contact lenses, namely because of mechanical eruption or through surface-active substances optionally present in the contact lens solution and can lead to severe loss of the aqueous lachrymal layer. […] This guards against the appearance of dryness, which can lead to a reduced lachrymal film.
The addition of D-sorbit to adjust the tonicity of contact lens care products is known. GB 2,205,175 and U.S. Pat. No. 3,888,782 describe sorbit as a carrier material for the preparation of powder mixtures for contact lens care products. […] This guards against the appearance of dryness, which can lead to a reduced lachrymal film. […] Negative effects caused by surface-active substances and preservatives are reduced and the contact lenses are prevented from drying out.

[2] = cytotoxicity studies on addition of dexpanthenol and D-sorbit; assay type: cell-based; settings: addition of sorbit to compositions containing antimicrobial compounds, e.g. PHMB
[3] = antimicrobial (microbiological) efficacy of contact lens care solutions; settings: addition of sorbit to contact lens care compositions

lachrymal film stabilisation [1] | SMILES | toxicity [2] | effect on microbiological efficacy of antimicrobial compounds present, e.g. PHMB [3]
stabilises the lachrymal film | CC(C)(CO)[C@@H](O)C(=O)NCCCO [dexpanthenol] |  | 
 | OC[C@@H](O)[C@@H](O)[C@H](O)[C@@H](O)CO [sorbit, D-sorbit] | without resulting in negative effects as regards toxicity | substantially increases the microbiological efficacy
